The results in this text go back to ChEMBL document CHEMBL2203102, “Crucial Role of 3-Bromoethyl in Removing the Estrogenic Activity of 17β-HSD1 Inhibitor 16β-(m-Carbamoylbenzyl)estradiol” (ACS Med Chem Lett, 2011).

The target in data set [1] is T1, 17-beta-hydroxysteroid dehydrogenase type 1 (Homo sapiens) (UniProt P14061).
T1 sequence (whole entry): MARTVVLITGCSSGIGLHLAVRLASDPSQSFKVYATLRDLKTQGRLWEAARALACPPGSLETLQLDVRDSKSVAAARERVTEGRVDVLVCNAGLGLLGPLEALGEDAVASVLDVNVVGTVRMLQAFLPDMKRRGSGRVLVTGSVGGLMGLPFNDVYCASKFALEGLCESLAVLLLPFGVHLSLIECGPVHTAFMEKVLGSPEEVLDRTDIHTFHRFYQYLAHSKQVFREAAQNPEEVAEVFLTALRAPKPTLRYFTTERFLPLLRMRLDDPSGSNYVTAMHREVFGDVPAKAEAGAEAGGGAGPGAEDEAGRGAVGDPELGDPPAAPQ
The data set can be described thus: Inhibition of 17beta-HSD1 in human T47D cells assessed as decrease in transformation of [14C]estrone to [14C]-estradiol at 0.1 uM after 24 hrs by thin layer chromatography. The format is cell-based.

Data set [2] concerns the target T1, 17-beta-hydroxysteroid dehydrogenase type 1 (Homo sapiens). The data set can be described thus: Inhibition of 17beta-HSD1 in human T47D cells assessed as decrease in transformation of [14C]estrone to [14C]-estradiol at 0.01 uM after 24 hrs by thin layer chromatography. The class given is cell-based.
The subject of another data set is MCF7. The data set can be described thus: Estrogenic activity in estrogen-starved estrogen sensitive human MCF7 cells assessed as stimulation of cell proliferation at 0.1 to 1 uM after 7 days by CellTiter96 assay. The format is ADME, cell-based. The settings on record: mcf7, 168 h.

Structures are written as SMILES.

What is called inhibition is the percentage by which the read-out fell short of the control. In the case of `C[C@]12CC[C@@H]3c4ccc(O)cc4CC[C@H]3[C@@H]1C[C@H](Cc1cccc(C(N)=O)c1)[C@@H]2O`, the values for the inhibition in data set [1] and in data set [2] were 66% and 35%, respectively.
For the compound `C[C@]12CC[C@@H]3c4ccc(CCBr)cc4CC[C@H]3[C@@H]1C[C@H](Cc1cccc(C(N)=O)c1)[C@@H]2O`, the Activity result in the data set with MCF7 is listed as “Non-toxic”. For the same compound, the inhibition came out at 49% in data set [1] and 23% in data set [2].
For the compound `C[C@]12CC[C@@H]3c4ccc(CCO)cc4CC[C@H]3[C@@H]1C[C@H](Cc1cccc(C(N)=O)c1)[C@@H]2O`, the figures for the inhibition in data set [1] and in data set [2] were 17% and 7%, respectively.
In the same order, the values of `C[C@]12CC[C@@H]3c4ccc(CBr)cc4CC[C@H]3[C@@H]1C[C@H](Cc1cccc(C(N)=O)c1)[C@@H]2O` are 36% and 20%.
As to `C[C@]12CC[C@@H]3c4ccc(CO)cc4CC[C@H]3[C@@H]1C[C@H](Cc1cccc(C(N)=O)c1)[C@@H]2O`, the inhibition in data set [2] was 14%.
